For one data set, the target named is T1, hERG potassium channel (Homo sapiens, UniProt Q12809).
T1 construct: expressed in transfected cells; host or cells: CHO (Chinese Hamster Ovary)
Description: hERG screening assay (PatchXpress patch clamp, CHO cells). The class given is cell-based. The following applies: CHO cells expressing hERG; for HERG 1 uM (block of hERG current): compound at 1 uM; for HERG 10 uM (block of hERG current): compound at 10 uM. Here is the method:
Compounds were screened to test their activity in blocking the hERG potassium channel. The hERG channel is heterologously expressed in a CHO (Chinese Hamster Ovary) cell line. Cells were maintained with standard tissue culture procedures and stable channel expression was maintained with 500 μg/ml G418 in the culture medium. Cells were harvested for testing on the PatchXpress automated patch clamp with Accumax (Innovative Cell Technologies, San Diego, Calif.) to isolate single cells.
The following solutions were used for electrophysiological recordings. The external solution contained: 2 mM CaCl2; 2 mM MgCl2; 4 mM KCl; 150 mM NaCl; 10 mM Glucose; 10 mM HEPES (pH 7.4 with 1M NaOH, osmolarity). The internal solution contained: 140 mM KCl, 10 mM MgCl2, 6 mM EGTA, 5 mM HEPES, 5 mM ATP (pH adjusted to 7.25 with KOH).
hERG channels were activated when the voltage was stepped to +20 mV from the −80 mV holding potential. During a 5 second step at +20 mV, the channels activated and then largely inactivated, so the currents were relatively small. Upon returning to −50 mV from +20 mV, hERG currents transiently became much larger as inactivation was rapidly removed and then the channel closed. The first step to −50 mV for 300 ms was used as a baseline for measuring the peak amplitude during the step to −50 mV after channel activation. The peak current at −50 mV was measured both under control conditions and after addition of compound.
All compounds were prepared as 10 mM DMSO stocks in glass vials. Stock solutions were mixed by vigorous vortexing and sonication for about 2 minutes at room temperature. For testing, compounds were diluted in glass vials using an intermediate dilution step in pure DMSO and then further diluted to working concentrations in external solution. Dilutions were prepared no longer than 20 minutes before use.
After achieving the whole-cell configuration, cells were monitored for 90 seconds to assess stability and washed with external solution for 66 seconds. The voltage protocol described above was then applied to the cells every 12 seconds and throughout the whole procedure. Only cells with stable recording parameters and meeting specified health criteria were allowed to enter the compound addition procedure.
External solution containing 0.1% DMSO (vehicle) was applied to the cells first to establish the control peak current amplitude. After allowing the current to stabilize for […], 1 μM and then 10 μM test compounds were applied. Each compound concentration was added 4 times and cells were kept in test solution until the effect of the compound reached steady state or for a maximum of 12 minutes. After addition of test compound, a positive control (1 μM Cisapride) was added, and must block >95% of the current for the experiment to be considered valid. Washout in the external solution compartment was performed until the recovery of the current reached steady state. Data was analyzed using DataXpress, Clampfit (Molecular Devices, Inc., Sunnyvale) and Origin 7 (Originlab Corp.)
Background: hERG is a cardiac potassium channel; its block is linked to QT prolongation.

The target in data set [1] is T2, wild-type human cardiac sodium channel, hNav1.5 (Homo sapiens, UniProt Q14524).
T2 construct: host or cells: HEK293
T2 sequence (Q14524 whole entry): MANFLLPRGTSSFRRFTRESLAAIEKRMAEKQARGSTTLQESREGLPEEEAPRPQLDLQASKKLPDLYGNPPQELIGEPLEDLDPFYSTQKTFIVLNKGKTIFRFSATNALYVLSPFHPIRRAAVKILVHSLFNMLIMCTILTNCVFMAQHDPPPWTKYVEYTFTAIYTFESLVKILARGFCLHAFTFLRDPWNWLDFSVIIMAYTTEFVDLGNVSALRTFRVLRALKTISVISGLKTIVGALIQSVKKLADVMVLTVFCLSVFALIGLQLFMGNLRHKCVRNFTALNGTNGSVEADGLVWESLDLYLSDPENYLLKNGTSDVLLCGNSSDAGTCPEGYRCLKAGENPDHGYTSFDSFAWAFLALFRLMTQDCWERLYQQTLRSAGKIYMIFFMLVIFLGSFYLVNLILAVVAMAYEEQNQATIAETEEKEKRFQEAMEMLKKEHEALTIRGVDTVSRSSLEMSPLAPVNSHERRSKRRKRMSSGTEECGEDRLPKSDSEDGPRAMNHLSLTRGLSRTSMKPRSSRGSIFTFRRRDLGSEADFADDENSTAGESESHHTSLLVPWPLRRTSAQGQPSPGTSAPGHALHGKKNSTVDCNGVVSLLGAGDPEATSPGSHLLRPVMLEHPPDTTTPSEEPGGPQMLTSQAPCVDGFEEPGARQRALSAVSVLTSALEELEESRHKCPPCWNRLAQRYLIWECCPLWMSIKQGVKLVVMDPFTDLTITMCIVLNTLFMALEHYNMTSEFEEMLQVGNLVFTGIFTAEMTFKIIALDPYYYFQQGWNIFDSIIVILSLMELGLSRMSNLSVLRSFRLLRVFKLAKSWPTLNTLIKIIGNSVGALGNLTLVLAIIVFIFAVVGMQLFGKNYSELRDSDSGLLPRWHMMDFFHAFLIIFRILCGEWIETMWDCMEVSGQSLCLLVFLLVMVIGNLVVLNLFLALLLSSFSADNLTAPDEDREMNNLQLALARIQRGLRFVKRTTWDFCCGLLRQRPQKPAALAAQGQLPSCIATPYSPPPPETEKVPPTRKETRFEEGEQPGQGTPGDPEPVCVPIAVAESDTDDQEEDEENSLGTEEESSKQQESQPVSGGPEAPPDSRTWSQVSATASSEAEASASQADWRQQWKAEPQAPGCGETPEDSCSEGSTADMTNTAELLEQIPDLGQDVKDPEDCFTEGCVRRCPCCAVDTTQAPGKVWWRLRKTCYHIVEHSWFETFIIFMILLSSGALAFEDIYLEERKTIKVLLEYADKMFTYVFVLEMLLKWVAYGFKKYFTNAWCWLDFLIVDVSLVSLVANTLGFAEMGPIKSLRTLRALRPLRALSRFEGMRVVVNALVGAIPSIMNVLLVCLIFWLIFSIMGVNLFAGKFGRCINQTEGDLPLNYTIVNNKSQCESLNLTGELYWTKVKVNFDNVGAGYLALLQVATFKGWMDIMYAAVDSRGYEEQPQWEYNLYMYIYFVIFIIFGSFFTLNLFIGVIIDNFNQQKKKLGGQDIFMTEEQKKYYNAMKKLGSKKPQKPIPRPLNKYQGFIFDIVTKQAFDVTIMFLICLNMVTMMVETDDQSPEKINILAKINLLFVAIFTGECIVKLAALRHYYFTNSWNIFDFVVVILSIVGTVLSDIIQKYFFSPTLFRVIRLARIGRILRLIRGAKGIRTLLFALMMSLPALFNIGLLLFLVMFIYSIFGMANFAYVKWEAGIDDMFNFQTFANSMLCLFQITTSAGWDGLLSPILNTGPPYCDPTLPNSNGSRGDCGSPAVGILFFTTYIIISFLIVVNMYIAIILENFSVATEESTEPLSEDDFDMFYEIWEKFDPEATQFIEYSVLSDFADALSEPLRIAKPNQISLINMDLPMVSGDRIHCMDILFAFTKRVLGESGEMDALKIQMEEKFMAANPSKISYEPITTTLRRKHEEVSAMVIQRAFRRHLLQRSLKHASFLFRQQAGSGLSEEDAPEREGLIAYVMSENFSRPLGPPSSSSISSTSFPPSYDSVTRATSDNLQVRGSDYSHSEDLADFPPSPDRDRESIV
The experiment in a line: Late INa screening assay (PatchXpress whole cell patch clamp). The class given is cell-based. As to conditions: HEK293 hNav1.5; for inhibition at 10 µM: compound at 10 uM, late INa generated with Tefluthrin or ATX II, read-out: Late INa 10 uM (percent block of late INa); for Late INa 1 uM (percent block of late INa): compound at 1 uM. Here is the method:
The late sodium current (Late INa) and peak sodium current (Peak INa) assays were performed on an automated electrophysiology platform, PatchXpress 7000A (MDS Analytical Technologies, Sunnyvale, Calif.), using the whole cell patch clamp technique to measure currents through the cell membrane of up to 16 cells at a time. The assay used an HEK293 (human embryonic kidney) cell line heterologously expressing the wild-type human cardiac sodium channel, hNav1.5, purchased from Millipore (Billerica, Mass.). No beta subunits were coexpressed with the Na channel alpha subunit. Cells were maintained with standard tissue culture procedures, and stable channel expression was maintained with 400 μg/ml Geneticin in the culture medium. Cells isolated for use on PatchXpress were incubated for 5 minutes in Versene 1× and then for 2 minutes in 0.0125% Trypsin-EDTA (both at 37° C.) to ensure that 80-90% of the cells are single and not part of a cell cluster. Experiments were carried out at 24-27° C.
For both the Late INa and Peak INa assays, series resistance compensation was set to 50% and whole-cell compensation was performed automatically. Currents were low-pass filtered at 10 kHz and digitized at 31.25 kHz. Currents through open sodium channels were automatically recorded and stored in the DataXpress2 database (MDS Analytical Technologies, Sunnyvale, Calif.). Analysis was performed using DataXpress2 analysis software and data are compiled in Excel.
Compound stocks were routinely made in glass vials to 10 mM in dimethyl sulfoxide (DMSO). In some cases, when compounds were not soluble in DMSO, they are made in 100% ethanol. Stocks were sonicated as necessary. The extracellular solution for screening Late INa was composed of: 140 mM NaCl, 4 mM KCl, 1.8 mM CaCl2, 0.75 mM MgCl2, and 5 mM HEPES with pH adjusted to 7.4 using NaOH. The extracellular solution for screening Peak INa was composed of: 20 mM NaCl, 120 mM N-methyl-D glucamine, 4 mM KCl, 1.8 mM CaCl2, 0.75 mM MgCl2, and 5 mM HEPES with pH adjusted to 7.4 using HCl. The intracellular solution used to perfuse the inside of the cells for both the Late INa and Peak INa assays contained: 120 mM CsF, 20 mM CsCl, 5 mM EGTA, 5 mM HEPES and pH adjusted to 7.4 with CsOH. Compounds were diluted in extracellular solution to […] in glass vials and then transferred to glass well plates before robotic addition to the cells. The 0Na extracellular solution used at the end of each experiment for the Late INa and Peak INa assays to measure baseline current contained: 140 mM N-methyl-D-glucamine; 4 mM KCl; 1.8 mM CaCl2; 0.75 mM MgCl2; 5 mM HEPES and pH was adjusted to 7.4 with HCl.
For the Late INa assay, sodium channels were activated every 10 seconds (0.1 Hz) by depolarizing the cell membrane to −20 mV for 250 milliseconds (ms) from a holding potential of −120 mV. In response to a −20 mV voltage step, typical Nav1.5 sodium currents activated rapidly to a peak negative current and then inactivated nearly completely within 3-4 ms.
All compounds were tested to determine their activity in blocking the late sodium current. Late INa current was generated by adding 10 μM Tefluthrin (pyrethroid) to the extracellular solution while recording Na currents. For some experiments, 50 nM ATX II (sea anemone toxin), another late INa activator, was used to generate the late component. Both activators generated late components that are large, and thus block of the late component by compounds could be measured easily. For the purposes of the screening, late INa is defined as the mean current between 225 ms and 250 ms after stepping to −20 mV to activate Na channels. After establishing the whole cell recording configuration, late INa activators were added to each well 4 times over a 16-17 minute period so that the late component of the Na current reached a stable value. Compounds were then added (typically at 10 μM), in the presence of late INa activator, with 3 additions over the course of 7 or 8 minutes. […]
(The patch-clamp technique gives a direct electrical read-out from membranes.)

Structures are written as SMILES.

T1 sequence (Q12809 whole entry): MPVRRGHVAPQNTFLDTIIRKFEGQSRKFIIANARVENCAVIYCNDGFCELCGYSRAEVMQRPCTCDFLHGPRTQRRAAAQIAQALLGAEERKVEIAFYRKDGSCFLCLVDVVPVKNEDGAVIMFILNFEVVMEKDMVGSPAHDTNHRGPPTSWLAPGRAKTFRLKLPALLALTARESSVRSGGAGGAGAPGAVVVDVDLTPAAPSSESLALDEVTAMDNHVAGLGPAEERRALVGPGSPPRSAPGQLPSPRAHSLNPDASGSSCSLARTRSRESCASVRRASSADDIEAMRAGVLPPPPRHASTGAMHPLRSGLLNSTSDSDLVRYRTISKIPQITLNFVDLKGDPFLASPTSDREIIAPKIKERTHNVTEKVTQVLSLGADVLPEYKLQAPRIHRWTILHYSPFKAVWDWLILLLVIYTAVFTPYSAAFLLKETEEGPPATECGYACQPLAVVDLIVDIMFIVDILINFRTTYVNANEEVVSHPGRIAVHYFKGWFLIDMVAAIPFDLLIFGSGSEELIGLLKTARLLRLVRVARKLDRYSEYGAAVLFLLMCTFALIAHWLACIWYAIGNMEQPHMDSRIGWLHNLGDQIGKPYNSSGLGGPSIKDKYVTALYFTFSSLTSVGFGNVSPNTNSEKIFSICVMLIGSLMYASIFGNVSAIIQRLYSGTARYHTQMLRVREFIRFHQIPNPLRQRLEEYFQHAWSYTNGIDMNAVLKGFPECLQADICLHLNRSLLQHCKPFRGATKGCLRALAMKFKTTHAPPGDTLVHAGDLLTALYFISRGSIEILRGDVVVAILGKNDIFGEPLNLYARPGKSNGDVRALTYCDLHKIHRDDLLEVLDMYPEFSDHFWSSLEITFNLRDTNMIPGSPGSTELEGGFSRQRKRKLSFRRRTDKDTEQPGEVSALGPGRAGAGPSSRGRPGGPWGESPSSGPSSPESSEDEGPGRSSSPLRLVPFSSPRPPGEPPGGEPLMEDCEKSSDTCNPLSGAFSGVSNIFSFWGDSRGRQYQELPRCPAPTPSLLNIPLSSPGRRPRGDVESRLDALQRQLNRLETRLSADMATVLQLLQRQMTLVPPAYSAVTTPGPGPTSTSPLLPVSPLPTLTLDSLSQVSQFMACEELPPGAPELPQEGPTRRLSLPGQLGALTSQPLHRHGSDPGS

For the compound `Cn1c(=O)cnc2ccc(-c3ccc(OC(F)(F)F)cc3)cc21` [1-methyl-7-[4-(trifluoromethoxy)phenyl] quinoxalin-2(1H)-one], at hERG potassium channel, the “HERG 1 uM (block of hERG current)” value amounted to 10.00% and the “HERG 10 uM (block of hERG current)” value came out at 41.5%. In data set [1], the inhibition at 10 µM was found to be 51.6%.

As to `Cc1nc2ccc(-c3ccc(C(F)(F)F)cc3)cc2n(C)c1=O` [1,3-dimethyl-7-[4-(trifluoromethyl)phenyl] quinoxalin-2(1H)-one], on hERG potassium channel, the “HERG 1 uM (block of hERG current)” value was determined as 25.0% and the “HERG 10 uM (block of hERG current)” value came to 69.5%. The inhibition at 10 µM in data set [1] was determined as 58.3%.

In the case of `Cc1nc2ccc(-c3ccc(OC(F)(F)F)cc3)cc2n(C)c1=O` [1,3-dimethyl-7-[4-(trifluoromethoxy)phenyl] quinoxalin-2(1H)-one], in data set [1], the “Late INa 1 uM (percent block of late INa)” value came to 31.0% and the inhibition at 10 µM stood at 61.7%.

Turning to `Cc1nc2ccc(-c3cccc(C(F)(F)F)c3)cc2n(C)c1=O` [1,3-dimethyl-7-[3-(trifluoromethyl)phenyl] quinoxalin-2(1H)-one], in data set [1], the inhibition at 10 µM came out at 45.5%.

Take `CC(C)c1nc2ccc(-c3cccc(OC(F)(F)F)c3)cc2n(C)c1=O` [1-methyl-3-(propan-2-yl)-7-[3-(trifluoromethoxy)phenyl] quinoxalin-2(1H)-one]: in data set [1], the inhibition at 10 µM is 49.9%.

`Cn1c(=O)cnc2ccc(-c3ccc(F)c(F)c3)cc21` [7-(3,4-difluorophenyl)-1-methylquinoxalin-2(1H)-one]: in data set [1], the inhibition at 10 µM came out at 17.5%.

Regarding `Cn1c(=O)c(C(F)(F)F)nc2cc(-c3cccc(C(F)(F)F)c3)ccc21` [1-methyl-3-(trifluoromethyl)-6-[3-(trifluoromethyl)phenyl] quinoxalin-2(1H)-one], the inhibition at 10 µM in data set [1] came to 24%.

With `CCOC(=O)c1nc2ccc(-c3ccc(OC(F)(F)F)cc3)cc2n(C)c1=O` [ethyl 4-methyl-3-oxo-6-[4-(trifluoromethoxy)phenyl]-3,4-dihydroquinoxaline-2-carboxylate], at hERG potassium channel, the “HERG 1 uM (block of hERG current)” value worked out at 34.0% and the “HERG 10 uM (block of hERG current)” value is recorded as 79.5%. In addition, the inhibition at 10 µM in data set [1] worked out at 49.3%.

Turning to `Cn1c(=O)c(C(C)(C)O)nc2ccc(-c3ccc(OC(F)(F)F)cc3)cc21` [3-(2-hydroxypropan-2-yl)-1-methyl-7-[4-(trifluoromethoxy)phenyl] quinoxalin-2(1H)-one], on hERG potassium channel, the “HERG 1 uM (block of hERG current)” value was determined as 19.5% and the “HERG 10 uM (block of hERG current)” value stood at 76.0%. The inhibition at 10 µM in data set [1] was determined as 54%.

On to `Cn1c(=O)c(C(C)(C)C)nc2ccc(-c3cccc(OC(F)(F)F)c3)cc21` [3-tert-butyl-1-methyl-7-[3-(trifluoromethoxy)phenyl] quinoxalin-2(1H)-one], for which, at hERG potassium channel, the “HERG 1 uM (block of hERG current)” value was determined as 10.0% and the “HERG 10 uM (block of hERG current)” value was determined as 10.0%. Moreover, in data set [1], the “Late INa 1 uM (percent block of late INa)” value is recorded as 51.3% and the inhibition at 10 µM was found to be 77.5%.

For `CC(C)c1nc2ccc(-c3ccc(OC(F)(F)F)cc3)cc2n(C)c1=O` [1-methyl-3-(propan-2-yl)-7-[4-(trifluoromethoxy)phenyl] quinoxalin-2(1H)-one], at hERG potassium channel, the “HERG 1 uM (block of hERG current)” value is reported as 10.0% and the “HERG 10 uM (block of hERG current)” value was found to be 10.0%. In data set [1], the “Late INa 1 uM (percent block of late INa)” value was 31.3% and the inhibition at 10 µM amounted to 60.3%.

Turning to `Cn1c(=O)c(C(F)(F)F)nc2cc(-c3ccc(OC(F)(F)F)cc3)ccc21` [1-methyl-6-[4-(trifluoromethoxy)phenyl]-3-(trifluoromethyl)quinoxalin-2(1H)-one], on hERG potassium channel, the “HERG 1 uM (block of hERG current)” value turned out to be 10.0% and the “HERG 10 uM (block of hERG current)” value was determined as 47.5%. Further, in data set [1], the inhibition at 10 µM came to 39.9%.

For `Cc1nc2cc(-c3ccc(F)c(F)c3)ccc2n(C)c1=O` [6-(3,4-difluorophenyl)-1,3-dimethylquinoxalin-2(1H)-one], the inhibition at 10 µM in data set [1] came to 14.3%.

As to `Cc1nc2cc(-c3ccc(OC(F)(F)F)cc3)ccc2n(C)c1=O` [1,3-dimethyl-6-[4-(trifluoromethoxy)phenyl] quinoxalin-2(1H)-one], in data set [1], the inhibition at 10 µM stood at 33.7%.

As to `CCOC(=O)c1nc2ccc(-c3cccc(OC(F)(F)F)c3)cc2n(C)c1=O` [ethyl 4-methyl-3-oxo-6-[3-(trifluoromethoxy)phenyl]-3,4-dihydroquinoxaline-2-carboxylate], the inhibition at 10 µM in data set [1] is 54.3%.

Regarding `Cn1c(=O)c(C(C)(C)C)nc2ccc(-c3ccc(OC(F)(F)F)cc3)cc21` [3-tert-butyl-1-methyl-7-[4-(trifluoromethoxy)phenyl] quinoxalin-2(1H)-one], the inhibition at 10 µM in data set [1] is 44.6%.

In the case of `O=C(CO)NCCn1c(=O)c(C(F)(F)F)nc2ccc(-c3ccc(OC(F)(F)F)cc3)cc21` [2-hydroxy-N-(2-{2-oxo-7-[4-(trifiuoromethoxy)phenyl]-3-(trifluoromethyl)quinoxalin-1(2H)-yl}ethyl)acetamide], in data set [1], the inhibition at 10 µM was 19%.

As to `Cn1c(=O)c(C(F)(F)F)nc2cc(-c3cccc(OC(F)(F)F)c3)ccc21` [1-methyl-6-[3-(trifluoromethoxy)phenyl]-3-(trifluoromethyl)quinoxalin-2(1H)-one], the inhibition at 10 µM in data set [1] came to 31.6%.

Turning to `CC(C)(C)c1nc2ccc(-c3cccc(OC(F)(F)F)c3)cc2n(CCNC(=O)CO)c1=O` [N-(2-{3-tert-butyl-2-oxo-7-[3-(trifiuoromethoxy)phenyl]quinoxalin-1(2H)-yl}ethyl)-2-hydroxyacetamide], the inhibition at 10 µM in data set [1] is 58.1%.

The values above are taken from patent US8912190B2, “Substituted heterocyclic compounds” (Gilead Sciences, Inc., priority 2008, dated 2014).
